EC50 data for ten compounds are collected here from patent US12617783B2, “Heterocyclic GLP-1R agonists” (BIOMEA FUSION, INC., priority 2024, dated 2026).

pEC50: −log10 of the molar value. Where only a bound is given, the exact number is not on record here.

T1 sequence (P43220 24-463): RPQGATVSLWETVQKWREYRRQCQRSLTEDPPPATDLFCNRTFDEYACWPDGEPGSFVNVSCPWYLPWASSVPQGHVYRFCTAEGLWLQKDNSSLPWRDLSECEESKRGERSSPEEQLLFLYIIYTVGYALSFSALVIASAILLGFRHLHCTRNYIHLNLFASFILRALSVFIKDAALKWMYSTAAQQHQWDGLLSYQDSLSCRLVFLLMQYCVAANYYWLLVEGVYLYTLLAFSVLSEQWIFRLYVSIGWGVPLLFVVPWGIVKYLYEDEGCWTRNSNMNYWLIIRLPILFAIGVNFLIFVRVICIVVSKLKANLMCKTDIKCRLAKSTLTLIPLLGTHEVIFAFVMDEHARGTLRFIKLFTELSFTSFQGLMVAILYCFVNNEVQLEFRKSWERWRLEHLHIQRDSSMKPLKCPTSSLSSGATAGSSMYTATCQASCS

This assay has as its target T1, human GLP-1R (Homo sapiens, UniProt P43220).
T1 construct: host or cells: HEK293
Description: GLP-1R cAMP assay (Example B1a, HTRF, 30 min at room temperature). Type of assay: cell-based. The settings on record: cAMP accumulation in HEK293 expressing human GLP-1R, no BETP, 30 min room temperature (Method B1a, compounds ID 1-609), Table 1; read-out: EC50. In a few lines: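 Competitive HTRF read-out of cAMP after 30 min room-temperature stimulation, BETP absent, of human GLP-1R-HEK293 cells (1,000/well) in HEPES buffer with 500 μM IBMX and 0.1% BSA. Activation normalised to GLP-1(7-37) positive control. EC50 from 4-parameter non-linear regression.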
(Cyclic AMP is a second messenger, typically raised through Gs and lowered through Gi signalling.)
With `Cc1cc(-n2nc3c(c2-n2ccn(-c4ccc5c(cnn5C)c4F)c2=O)CN(C(=O)c2cc4cc([C@H]5CCOC(C)(C)C5)ccc4n2[C@@]2(c4noc(=O)[nH]4)C[C@@H]2C)CCC3)cc(C)c1F` [Compound 416, 3-((1S,2S)-1-(5-((S)-2,2-dimethyltetrahydro-2H-pyran-4-yl)-2-(3-(3-(4-fluoro-1-methyl-1H-indazol-5-yl)-2-oxo-2,3-dihydro-1H-imidazol-1-yl)-2-(4-fluoro-3,5-dimethylphenyl)-2,4,5,6,7,8-hexahydropyrazolo[4,3-c]azepine-5-carbonyl)-1H-indol-1-yl)-2-methylcyclopropyl)-1,2,4-oxadiazol-5(4H)-one], the pEC50 (commonly −log10 of the EC50, conventionally taken in molar units) was 6.79.
In the case of `Cc1cc(-n2nc3c(c2-n2ccn(-c4ccc5c(cnn5C)c4F)c2=O)[C@@H]2CC[C@H](C3)N2Cc2cc3cc([C@H]4CCOC(C)(C)C4)ccc3n2[C@@]2(c3noc(=O)[nH]3)C[C@@H]2C)cc(C)c1F` [Compound 417, 3-((1S,2S)-1-(5-((S)-2,2-dimethyltetrahydro-2H-pyran-4-yl)-2-(((4S,7R)-3-(3-(4-fluoro-1-methyl-1H-indazol-5-yl)-2-oxo-2,3-dihydro-1H-imidazol-1-yl)-2-(4-fluoro-3,5-dimethylphenyl)-2,4,5,6,7,8-hexahydro-4,7-epiminocyclohepta [c]pyrazol-9-yl)methyl)-1H-indol-1-yl)-2-methylcyclopropyl)-1,2,4-oxadiazol-5(4H)-one], the pEC50 is 6.96.
On to `Cc1cc(-n2nc3c(c2-n2ccn(-c4ccc5c(cnn5C)c4F)c2=O)[C@@H]2CC[C@H](C3)N2C(=O)c2cc3cc(C4COC(C)(C)C4)ccc3n2[C@@]2(c3noc(=O)[nH]3)C[C@@H]2C)cc(C)c1F` (stereo partly drawn) [Compound 418, 3-[(1S,2S)-1-[5-(5,5-dimethyltetrahydrofuran-3-yl)-2-[(1S,8R)-4-(4-fluoro-3,5-dimethyl-phenyl)-3-[3-(4-fluoro-1-methyl-indazol-5-yl)-2-oxo-imidazol-1-yl]-4,5,11-triazatricyclo[6.2.1.02,6]undeca-2,5-diene-11-carbonyl]indol-1-yl]-2-methyl-cyclopropyl]-4H-1,2,4-oxadiazol-5-one], for which the negative-log EC50 (pEC50) is 6.08.
`Cc1cc(-n2nc3c(c2-n2ccn(-c4ccc5c(cnn5C)c4F)c2=O)[C@@H]2CC[C@H](C3)N2C(=O)c2cc3cc([C@H]4CCOC4(C)C)ccc3n2[C@@]2(c3noc(=O)[nH]3)C[C@@H]2C)cc(C)c1F` [Compound 419, 3-[(1S,2S)-1-[5-[(3R)-2,2-dimethyltetrahydrofuran-3-yl]-2-[(1S,8R)-4-(4-fluoro-3,5-dimethyl-phenyl)-3-[3-(4-fluoro-1-methyl-indazol-5-yl)-2-oxo-imidazol-1-yl]-4,5,11-triazatricyclo[6.2.1.02,6]undeca-2,5-diene-11-carbonyl]indol-1-yl]-2-methyl-cyclopropyl]-4H-1,2,4-oxadiazol-5-one]: the negative logarithm of the EC50 (pEC50) was at most 5.00.
The result for `Cc1cc(-n2nc3c(c2-n2ccn(-c4ccc5c(cnn5C)c4F)c2=O)[C@@H]2CC[C@H](C3)N2C(=O)c2cc3cc([C@@H]4CCOC4(C)C)ccc3n2[C@@]2(c3noc(=O)[nH]3)C[C@@H]2C)cc(C)c1F` [Compound 420, 3-[(1S,2S)-1-[5-[(3S)-2,2-dimethyltetrahydrofuran-3-yl]-2-[(1S,8R)-4-(4-fluoro-3,5-dimethyl-phenyl)-3-[3-(4-fluoro-1-methyl-indazol-5-yl)-2-oxo-imidazol-1-yl]-4,5,11-triazatricyclo[6.2.1.02,6]undeca-2,5-diene-11-carbonyl]indol-1-yl]-2-methyl-cyclopropyl]-4H-1,2,4-oxadiazol-5-one] reads 6.19; that for `Cc1cc(-n2nc3c(c2-n2ccn(-c4ccc5c(cnn5C)c4F)c2=O)CCN(C(=O)c2cc4cc([C@H]5CCOC(C)(C)C5)ccc4n2[C@@]2(c4noc(=O)[nH]4)C[C@@H]2C)CC3)cc(C)c1F` [Compound 421, 3-[(1S,2S)-1-[5-[(4S)-2,2-dimethyltetrahydropyran-4-yl]-2-[2-(4-fluoro-3,5-dimethyl-phenyl)-3-[3-(4-fluoro-1-methyl-indazol-5-yl)-2-oxo-imidazol-1-yl]-4,5,7,8-tetrahydropyrazolo[3,4-d]azepine-6-carbonyl]indol-1-yl]-2-methyl-cyclopropyl]-4H-1,2,4-oxadiazol-5-one], at most 5.00; that for `Cc1cc(-n2nc3c(c2-n2ccn(-c4cccc(C(N)=O)c4F)c2=O)[C@@H]2CC[C@H](C3)N2C(=O)c2cc3cc([C@H]4CCOC(C)(C)C4)ccc3n2[C@@]2(c3noc(=O)[nH]3)C[C@@H]2C)cc(C)c1F` [Compound 422, 3-[3-[(1S,8R)-11-[5-[(4S)-2,2-dimethyltetrahydropyran-4-yl]-1-[(1S,2S)-2-methyl-1-(5-oxo-4H-1,2,4-oxadiazol-3-yl)cyclopropyl]indole-2-carbonyl]-4-(4-fluoro-3,5-dimethyl-phenyl)-4,5,11-triazatricyclo[6.2.1.02,6]undeca-2,5-dien-3-yl]-2-oxo-imidazol-1-yl]-2-fluoro-benzamide], 6.52.
The result for `Cc1cc(-n2nc3c(c2-n2ccn(-c4ccc5c(cnn5C)c4F)c2=O)[C@@H]2CC[C@H](C3)N2C(=O)c2cc3cc([C@H]4COC(C)(C)C4)ccc3n2[C@@]2(c3noc(=O)[nH]3)C[C@@H]2C)cc(C)c1F` [Compound 423, 3-[(1S,2S)-1-[5-[(3S)-5,5-dimethyltetrahydrofuran-3-yl]-2-[(1S,8R)-4-(4-fluoro-3,5-dimethyl-phenyl)-3-[3-(4-fluoro-1-methyl-indazol-5-yl)-2-oxo-imidazol-1-yl]-4,5,11-triazatricyclo[6.2.1.02,6]undeca-2,5-diene-11-carbonyl]indol-1-yl]-2-methyl-cyclopropyl]-4H-1,2,4-oxadiazol-5-one] reads 5.67; that for `Cc1cc(-n2nc3c(c2-n2ccn(-c4ccc5c(cnn5C)c4F)c2=O)[C@@H]2CC[C@H](C3)N2C(=O)c2cc3cc([C@@H]4CCOC5(CCC5)C4)ccc3n2[C@@]2(c3noc(=O)[nH]3)C[C@@H]2C)cc(C)c1F` [Compound 424, 3-((1S,2S)-1-(2-((4S,7R)-3-(3-(4-fluoro-1-methyl-1H-indazol-5-yl)-2-oxo-2,3-dihydro-1H-imidazol-1-yl)-2-(4-fluoro-3,5-dimethylphenyl)-2,4,5,6,7,8-hexahydro-4,7-epiminocyclohepta [c]pyrazole-9-carbonyl)-5-((R)-5-oxaspiro[3.5]nonan-8-yl)-1H-indol-1-yl)-2-methylcyclopropyl)-1,2,4-oxadiazol-5(4H)-one], at most 5.00.
Next, `Cc1cc(-n2nc3c(c2-n2ccn(-c4ccc5c(cnn5C)c4F)c2=O)[C@@H]2CC[C@H](C3)N2C(=O)c2cc3cc([C@@H]4COC(C)(C)C4)ccc3n2[C@@]2(c3noc(=O)[nH]3)C[C@@H]2C)cc(C)c1F` [Compound 425, 3-[(1S,2S)-1-[5-[(3R)-5,5-dimethyltetrahydrofuran-3-yl]-2-[(1S,8R)-4-(4-fluoro-3,5-dimethyl-phenyl)-3-[3-(4-fluoro-1-methyl-indazol-5-yl)-2-oxo-imidazol-1-yl]-4,5,11-triazatricyclo[6.2.1.02,6]undeca-2,5-diene-11-carbonyl]indol-1-yl]-2-methyl-cyclopropyl]-4H-1,2,4-oxadiazol-5-one]: 6.53.
